Measured values from patent publication EP0112685A1, “Compounds containing beta-lactams” (BEECHAM GROUP PLC, priority 1982, dated 1984).

Experiment: Blood levels in mice after oral or subcutaneous administration, assayed by biological β-lactamase inhibition-zone technique
Type: in vivo
Settings: for concentration at 0.5 h: 30 mins after administration; for concentration at 0.75 h: 45 mins after administration; for concentration at 1 h: 60 mins after administration; for concentration at 1.5 h: 90 mins after administration; for concentration at 2 h: 120 mins after administration; for AUC: mice
Protocol: The compound of Example 4 was administered either orally (by gastric lavage) or subcutaneously as a solution to groups of mice. At intervals after administration, 5 mice which had received the compound subcutaneously and 10 mice which had received the compound orally were sacrificed, and blood collected from the axillary region. The blood was assayed for content of compound 4 using a biological β-lactamase inhibition-zone assay technique. The mean values (+ standard deviation - SD) are tabulated below.

[1] = mouse, blood, sc, subcutaneous administration, 10 mg/kg, average for 5 mice
[2] = mouse, blood, oral administration, 20 mg/kg, average for 10 mice

Compound: O=C(O)C1C(=CCOCCCl)OC2CC(=O)N21 (stereo not shown) [Example 4, Lithium 9-0-(2-chloroethyl)clavulanate]
- levels in the blood of mice (administered by either an oral or parenteral route, result in words): high and prolonged levels
- concentration at 10 min (mouse, blood, sc, subcutaneous administration, 10 mg/kg, 10 mins after administration, average for 5 mice): 22800 ng/mL
- concentration at 20 min (mouse, blood, sc, subcutaneous administration, 10 mg/kg, 20 mins after administration, average for 5 mice): 17300 ng/mL
- concentration at 0.5 h [1]: 13300 ng/mL
- concentration at 0.75 h [1]: 7700 ng/mL
- concentration at 1 h [1]: 5200 ng/mL
- concentration at 1.5 h [1]: 2700 ng/mL
- concentration at 2 h [1]: 1800 ng/mL
- concentration at 0.25 h (mouse, blood, oral administration, 20 mg/kg, 15 mins after administration, average for 10 mice): 16600 ng/mL
- concentration at 0.5 h [2]: 10500 ng/mL
- concentration at 0.75 h [2]: 7940 ng/mL
- concentration at 1 h [2]: 7420 ng/mL
- concentration at 1.5 h [2]: 3910 ng/mL
- concentration at 2 h [2]: 3200 ng/mL
- AUC (mouse, sc, subcutaneous administration, 10 mg/kg, blood): 15100 ng·h/mL
- AUC (mouse, oral administration, 20 mg/kg, blood): 14300 ng·h/mL
